Data as given in article PMC8116058, “De novo macrocyclic peptides dissect energy coupling of a heterodimeric ABC transporter by multimode allosteric inhibition” (eLife, 2021).
Positions of bridges follow the written chain, without caps; N, C: chain ends. Non-standard residues stand in square brackets, D forms with d. Residues, ends and D or L forms follow the SMILES beside them. *: point of attachment. 5FAM = O=C1OC2(c3ccc(O)cc3Oc3cc(O)ccc32)c2ccc(C(=O)*)cc21; βAla = NCCC(=O)O

Tests used:
[1] = system: TmrAB in liposomes; assay: ATP hydrolysis assay; format: biochemical, Thermus thermophilus; details: TmrAB in liposomes 100 nM; ATP 2 mM; CP^F 1 µM; 10 min 45°C; without CP 1.49, autohydrolysis 0.62
Excerpt: In order to investigate the functional impact of CPs, we examined the effect of the CPs on ATP hydrolysis and substrate transport of TmrAB (Figure 3A). We reconstituted TmrAB in liposomes and first assayed the ATPase activity. […] We next set out to investigate peptide transport by TmrAB using a filter-based transport assay. To investigate whether CPs are recognized as substrates by TmrAB, we added fluorescein-labeled CP^Fs and examined ATP-dependent translocation. In contrast to the linear substrate peptide C4F, none of the CP^Fs were transported by TmrAB (Figure 3C). Next, we examined ATP-dependent transport of C4F peptides in the presence and absence of the different CPs.
Figure 3. CP^Fs are potent inhibitors of ATP turnover and substrate transport. (A) Experimental scheme of ATP hydrolysis and peptide transport by TmrAB. (B) CP^Fs inhibit ATP hydrolysis. TmrAB in liposomes (100 nM) was incubated with ATP (2 mM, traced with [γ^32P]-ATP), and MgCl2 (5 mM) in the presence and absence of CP^Fs (1 µM) for 10 min at 45°C. Autohydrolysis was determined in the absence of TmrAB, and background turnover was conducted in the presence of EDTA (10 mM). Release of [γ^32P] was quantified by thin layer chromatography. (C) CP^Fs are not transported by TmrAB. TmrAB (0.4 µM) reconstituted in liposomes was incubated with C4F peptide (3 µM) or CP^Fs (1 µM) in the presence of ATP/ADP (3 mM) and MgCl2 (5 mM) for 5 min at 45°C. Since CP^Fs were dissolved in maximal 0.5% (v/v) of DMSO, C4F plus 0.5% DMSO served as control. Proteoliposomes were washed on filter plates, and transported peptides were quantified at λex/em = 485/520 nm. (D) Inhibition of substrate translocation. TmrAB in liposomes (0.4 µM) were incubated with C4F peptide (3 µM), ATP/ADP (3 mM), and MgCl2 (5 mM) in the presence and absence of CP^Fs (1 µM) for 15 min at 45°C. Transported peptides were quantified as described in (C). In (B–C), mean values ± SD (n = 3) are shown. Figure 3—source data 1. Source data for Figure 3.
TmrAB reconstituted in liposomes (100 nM) were incubated with ATP (2 mM) traced with [γ^32P]-ATP (Hartmann Analytic), ouabain (1 mM), NaN3 (5 mM), EGTA (50 µM), MgCl2 (3 mM), and CP^Fs (1 µM) for 10 min at 45°C. Autohydrolysis and background hydrolysis were examined in the absence of proteoliposomes or the presence of EDTA (10 mM). Samples were spotted onto polyethyleneimine cellulose plates (Merck Millipore), and thin-layer chromatography was performed with 0.8 M LiCl-acetic acid pH 3.2. Plates were developed overnight on Exposure Cassette-K (Bio-Rad) and evaluated on Personal Molecular Imager System (Bio-Rad). Data were recorded in triplicates and the mean values ± SD (n = 3) are shown.

[2] = system: TmrAB; assay: ATP binding by scintillation proximity assay (SPA); design: species or system Thermus thermophilus; details: CP^B 1 µM; for Effect on ATP binding to TmrAB: SPA; for Signal, ATP binding: TmrAB 0.2 µM on SPA beads, ATP 3 µM traced with 3H-ATP, 30 min on ice, without CP 5.06; for Signal, Background: after release of TmrAB from beads with imidazole 200 mM
Excerpt: (§1) To elucidate the mechanistic basis for the inhibition of ATP hydrolysis and substrate transport, we investigated the effects of CPs on substrate binding. In the first approach, fluorescent CP^Fs were used as reporters in fluorescence polarization. […] In addition, we examined the impact of CP^Bs on ATP binding to TmrAB by scintillation proximity assays (SPA) (Figure 4C). […] Taken together, CPs are high-affinity allosteric inhibitors of TmrAB that leave ATP binding and substrate interaction largely unaffected, while impairing ATP hydrolysis and substrate translocation across the membrane.
(§2) Figure 4. […] (A) CP^Fs binding TmrAB is not affected by substrate peptide binding. […] For competition, C4^ATTO655 peptide (2 µM) or R9LQK peptide (200 µM) were added. (B) Binding of C4F peptide is not affected by CP^Bs. C4F peptides (50 nM) were mixed with TmrAB (4 µM), and fluorescence anisotropy was monitored as described in (A). For competition, C4^ATTO655 (10 µM) or CP^Bs (6 µM) were added. […] TmrAB (0.2 µM) were immobilized on SPA beads and incubated with ATP (3 μM, traced with ^3H-ATP) in the presence and absence of CP^Bs (1 µM each) for 30 min on ice. ATP binding was monitored by SPA. Background values were determined after releasing TmrAB complexes from the beads by adding imidazole (200 mM). The background signal in the absence of CP^Bs was set to 0 cpm. […] As this is an equilibrium experiment, this can be rationalized by the fact that CP13 stabilizes the ATP-bound OF conformer. Figure 4—source data 1. Source data for Figure 4.
DDM-solubilized TmrAB (0.2 µM) was incubated with ATP (2.8 μM), [2,5’,8-^3H(N)]-ATP (0.2 µM, ^3H-ATP, PerkinElmer), MgCl2 (3 mM), and CP^Bs (1 µM) for 30 min on ice. Copper-chelated SPA beads (PerkinElmer) were added to a final concentration of 5 mg/ml. Total binding was determined at 20°C in cpm mode (Wallac MicroBeta). Bound TmrAB complexes were eluted by adding 200 mM of imidazole, and background binding was determined. Data represent mean ± SD from three experiments.

[3] = system: TmrAB; assay: Competition of C4F peptide binding by CP^Bs (fluorescence anisotropy); design: species or system Thermus thermophilus; details: C4F 50 nM + TmrAB 4 µM + competitor (CP^B 6 µM or C4^ATTO655 10 µM)
Excerpt: as §1, §2
To determine equilibrium binding constants, CP^Fs (50 nM) were incubated with increasing concentrations of TmrAB-containing or empty liposomes. To probe the conformational selectivity, CP^Fs (50 nM) were mixed with detergent-solubilized IF TmrAB or OF TmrA^EQB. Before, OF TmrA^EQB was nucleotide-trapped by incubation with ATP (1 mM) and MgCl2 (3 mM) in the absence of CP^Fs for 5 min at 45°C. […] For peptide competition studies, RRYC^fluoresceinKSTEL (C4F, 50 nM) were incubated with detergent-solubilized TmrAB (4 µM), CP^Bs (6 µM), or C4^ATTO655 (10 µM). […] Fluorescence anisotropy was analyzed at λex/em of 485/520 nm using a microplate reader (CLARIOstar, BMG LABTECH). Fluorescence anisotropy was calculated using:(1) r=I||−I⊥/I||+2⋅I⊥ with I||: parallel intensity and I⊥: perpendicular intensity. Binding of CP^Fs were fitted by a one-site binding model (Langmuir 1:1) using:(2) Y=Bmax∙[L]/KD+[L] with Y: binding, Bmax: maximal binding, KD: equilibrium dissociation constant, and [L]: ligand concentration. Data represent mean ± SD from three experiments.

SMILES | ATP hydrolysis [1] | Effect on ATP binding to TmrAB [2] | Signal, ATP binding [2] [cpm*10^3] | Signal, Background [2] [cpm*10^3] | Bound C4F peptide, fluorescence anisotropy [3] | Effect on ATP binding to TmrAB ([2]; listed as CP13^B)
CC(C)C[C@@H]1NC(=O)[C@H](Cc2ccccc2)NC(=O)CNC(=O)[C@H](CO)NC(=O)[C@H](Cc2ccccc2)NC(=O)[C@H](CC(=O)O)NC(=O)[C@@H]2CCCN2C(=O)[C@H]([C@@H](C)O)NC(=O)[C@@H](Cc2ccc(O)cc2)NC(=O)CSC[C@@H](C(=O)NCC(=O)N[C@@H](CO)C(=O)NCCC(=O)NCCC(=O)N[C@@H](CCCNC(=N)N)C(=O)N[C@@H](CCCCNC(=O)c2ccc3c(c2)C(=O)OC32c3ccc(O)cc3Oc3cc(O)ccc32)C(N)=O)NC(=O)[C@H](C)NC(=O)[C@H](CC(N)=O)NC(=O)[C@H](CCCNC(=N)N)NC(=O)[C@H](CC(C)C)NC(=O)[C@H](Cc2ccccc2)NC(=O)[C@H](C)NC1=O [CP12] ({CH2CO}-[dY]TPDFSGFLAFLRNACGS[βAla][βAla]RK(5FAM)-NH2; thioether N-16) | 0.37 mmol Pi (g*min)^-1 | no effect on ATP binding | 5.02 | 0.08 | 0.128 | –
CC[C@H](C)[C@@H]1NC(=O)[C@H]([C@@H](C)O)NC(=O)[C@H](CC(C)C)NC(=O)[C@H](Cc2c[nH]c3ccccc23)NC(=O)[C@H](Cc2ccccc2)NC(=O)[C@H](CC(N)=O)NC(=O)[C@H](CCC(=O)O)NC(=O)[C@H](CC(C)C)NC(=O)[C@H](CS)NC(=O)[C@H](Cc2c[nH]cn2)NC(=O)[C@H](CO)NC(=O)[C@@H](Cc2ccc(O)cc2)NC(=O)CSC[C@@H](C(=O)NCC(=O)N[C@@H](CO)C(=O)NCCC(=O)NCCC(=O)N[C@@H](CCCNC(=N)N)C(=O)N[C@@H](CCCCNC(=O)c2ccc3c(c2)C(=O)OC32c3ccc(O)cc3Oc3cc(O)ccc32)C(N)=O)NC(=O)[C@H](CC(C)C)NC1=O [CP6] ({CH2CO}-[dY]SHCLENFWLTILCGS[βAla][βAla]RK(5FAM)-NH2; thioether N-14) | 0.54 mmol Pi (g*min)^-1 | only minor effects on ATP binding | 4.22 | -0.04 | 0.124 | –
CC[C@H](C)[C@@H]1NC(=O)[C@H](Cc2c[nH]c3ccccc23)NC(=O)[C@H](CC(N)=O)NC(=O)[C@H](C)NC(=O)[C@H](CO)NC(=O)[C@@H]2CCCN2C(=O)[C@H](CC(=O)O)NC(=O)[C@@H](Cc2ccc(O)cc2)NC(=O)CSC[C@@H](C(=O)NCC(=O)N[C@@H](CO)C(=O)NCCC(=O)NCCC(=O)N[C@@H](CCCNC(=N)N)C(=O)N[C@@H](CCCCNC(=O)c2ccc3c(c2)C(=O)OC32c3ccc(O)cc3Oc3cc(O)ccc32)C(N)=O)NC(=O)[C@H]([C@@H](C)O)NC(=O)[C@H](CC(C)C)NC(=O)[C@H](CC(C)C)NC(=O)[C@H](C(C)C)NC(=O)[C@H](CC(C)C)NC1=O [CP13] ({CH2CO}-[dY]DPSANWILVLLTCGS[βAla][βAla]RK(5FAM)-NH2; thioether N-14; C-terminus assumed) | 0.39 mmol Pi (g*min)^-1 | value of bound ATP exceeds the control without CPs | 6.33 | 0.19 | 0.141 | only minor effects on ATP binding
CC(C)[C@@H]1NC(=O)[C@H](Cc2ccccc2)NC(=O)[C@@H]2CCCN2C(=O)[C@H](CC(N)=O)NC(=O)[C@H](Cc2c[nH]c3ccccc23)NC(=O)[C@H](C(C)C)NC(=O)[C@H](Cc2ccc(O)cc2)NC(=O)[C@H](Cc2ccccc2)NC(=O)[C@@H](Cc2ccc(O)cc2)NC(=O)CSC[C@@H](C(=O)NCC(=O)N[C@@H](CO)C(=O)NCCC(=O)NCCC(=O)N[C@@H](CCCNC(=N)N)C(=O)N[C@@H](CCCCNC(=O)c2ccc3c(c2)C(=O)OC32c3ccc(O)cc3Oc3cc(O)ccc32)C(N)=O)NC(=O)[C@H](CCCCN)NC(=O)[C@H](Cc2ccccc2)NC1=O [CP14] ({CH2CO}-[dY]FYVWNPFVFKCGS[βAla][βAla]RK(5FAM)-NH2; thioether N-12; C-terminus assumed) | 0.39 mmol Pi (g*min)^-1 | no effect on ATP binding | 5.10 | 0.08 | 0.136 | –
